Reference: patent publication US20050026950A1, “Methods of therapeutic treatment using retinoids to achieve consistent bioavailability” (Allergan, Inc., priority 2003, published 2005)

Legend:
Format in all cases: in vivo, human
[1] = test system: severe psoriasis; assay: Patient with severe psoriasis taking Ortho-Novum treated with tazarotene; conditions: 6 mg per day, after 30 days
Description: The patient presents symptoms of severe psoriasis. The symptoms include lesions approximately 4 to 10 centimeters across appearing as raised patches of wine red skin many of which are covered in silvery white scales. The lesions are mostly dry and rough, and quite often noticeably warm to the touch. The lesions are present on the elbows, knees, scalp, and groin area. The patient experiences intense burning and itching associated with the lesions.
The patient is currently taking Ortho-Novum® for contraception.
Tazarotene at a dose of 6 mg per day is prescribed.

[2] = Two placebo-controlled 24-week safety studies of oral tazarotene plus 16- to 24-week dose-response evaluations
Description: Two multicenter, double-blind, randomized, placebo-controlled 24-week studies of identical design are conducted to evaluate the safety of oral tazarotene. In addition, 16- to 24-week dose-response evaluations are performed.
In the two safety trials, the incidence of adverse side effects with a 4.5 mg dose administered orally once daily is compared to the incidence of the same side effects with a placebo. […] The majority of these were mild in severity and typical of adverse effects associated with oral retinoids.

[3] = Phase 3 studies of orally administered tazarotene for psoriasis, adverse event monitoring; conditions: Taz 4.5 mg
Description: A series of Phase 3 studies are conducted on orally administered tazarotene for the treatment of psoriasis. Adverse events (side effects) are monitored. In addition, published data for acitretin's side effects are also considered.

[4] = Two placebo-controlled dose-ranging safety studies of oral tazarotene in nodulocystic acne
Description: Two placebo-controlled dose-ranging studies are conducted to evaluate the safety of oral tazarotene in patients having nodulocystic acne. In the first study, patients receive orally administered tazarotene at daily doses of 0.4 mg to 2.8 mg in 96 (71+25) patients (12 weeks treatment plus 12 weeks post-treatment). In the second study, daily doses of 0.75 mg to 6 mg tazarotene are administered to 181 patients (24 weeks treatment plus 12 weeks post-treatment).

[5] = test system: moderate to very severe plaque psoriasis; assay: Open-label extension study of oral tazarotene in plaque psoriasis non-responders
[6] = 4.5 mg orally once daily, two safety trials
[7] = Study 3, treated 3 months (N = 220)
[8] = Study 3, treated 6 months (N = 92)
[9] = combined data from Studies 1 and 2 (N = 348)
[10] = 4.5 mg once daily, 12-week extension
[11] = 4.5 mg once daily, 12-week extension, across both groups

Question: Which results are given for `CCOC(=O)c1ccc(C#Cc2ccc3c(c2)C(C)(C)CCS3)nc1` [tazarotene]?
Answer: psoriasis symptoms and lesions [1]: symptoms of itching and burning are relieved and the severity of their lesions are substantially lessened; incidence of agitation ([2]; 4.5 mg orally once daily): < 1%; incidence of altered hormone levels (TSH, T4, thyroid function test) ([2]; 4.5 mg orally once daily): 0%; incidence of anxiety ([2]; 4.5 mg orally once daily): 1%; incidence of depression ([2]; 4.5 mg orally once daily): 1%; incidence of emotional lability ([2]; 4.5 mg orally once daily): 3%; incidence of psychosis ([2]; 4.5 mg orally once daily): 0%; incidence of psychotic depression ([2]; 4.5 mg orally once daily): 0%; incidence of hypertriglyceridemia, hypercholesterolemia, abnormal liver function tests, increased ALT/AST, desquamation, eye dryness, alopecia ([2]; 4.5 mg orally once daily vs placebo): essentially the same incidence with oral tazarotene as with placebo; incidence of arthralgia [2, 6]: 17%; incidence of back pain [2, 6]: 7%; incidence of cheilitis [2, 6]: 66%; incidence of dermatitis [2, 6]: 1%; incidence of dry skin [2, 6]: 24%; incidence of foot pain [2, 6]: 3%; incidence of headache [2, 6]: 19%; incidence of hyperglycemia [2, 6]: 2%; incidence of joint disorder [2, 6]: 4%; incidence of myalgia [2, 6]: 14%; incidence of nasal dryness [2, 6]: 4%; incidence of rash [2, 6]: 3%; incidence of patients discontinuing due to adverse effects ([2]; 0.4 to 1.1 mg oral (n=105)): approximately 2%; incidence of patients discontinuing due to adverse effects ([2]; 2.1 to 2.8 mg oral (n=21)): 10%; Alopecia [3, 7]: 1 (0.5) number (%) of patients; Arthralgia [3, 7]: 28 (12.7) number (%) of patients; Atrophy of skin [3, 7]: 0 (0.0) number (%) of patients; Back pain [3, 7]: 7 (3.2) number (%) of patients; Cheilitis [3, 7]: 149 (67.7) number (%) of patients; Dry Skin [3, 7]: 47 (21.4) number (%) of patients; Dry mouth/Oral dryness [3, 7]: 11 (5.0) number (%) of patients; Epistaxis [3, 7]: 1 (0.5) number (%) of patients; Erythematous rash/Erythema [3, 7]: 0 (0.0) number (%) of patients; Hyperesthesia [3, 7]: 0 (0.0) number (%) of patients; Nail Disorder [3, 7]: 1 (0.5) number (%) of patients; Paresthesia [3, 7]: 3 (1.4) number (%) of patients; Paronychia/Nail disorder [3, 7]: 1 (0.5) number (%) of patients; Pruritus [3, 7]: 11 (5.0) number (%) of patients; Rhinitis [3, 7]: 0 (0.0) number (%) of patients; Rigors/Chills [3, 7]: 1 (0.5) number (%) of patients; Skin peeling/Desquamation [3, 7]: 3 (1.4) number (%) of patients; Sticky skin/Skin disorder [3, 7]: 0 (0.0) number (%) of patients; Xerophthalmia/Eye disorder [3, 7]: 3 (1.4) number (%) of patients; Alopecia [3, 8]: 5 (5.4) number (%) of patients; Arthralgia [3, 8]: 30 (32.6) number (%) of patients; Atrophy of skin [3, 8]: 0 (0.0) number (%) of patients; Back pain [3, 8]: 10 (10.9) number (%) of patients; Cheilitis [3, 8]: 65 (70.7) number (%) of patients; Dry Skin [3, 8]: 24 (26.1) number (%) of patients; Dry mouth/Oral dryness [3, 8]: 2 (2.2) number (%) of patients; Epistaxis [3, 8]: 0 (0.0) number (%) of patients; Erythematous rash/Erythema [3, 8]: 0 (0.0) number (%) of patients; Hyperesthesia [3, 8]: 0 (0.0) number (%) of patients; Nail Disorder [3, 8]: 1 (1.1) number (%) of patients; Paresthesia [3, 8]: 1 (1.1) number (%) of patients; Paronychia/Nail disorder [3, 8]: 1 (1.1) number (%) of patients; Pruritus [3, 8]: 3 (3.3) number (%) of patients; Rhinitis [3, 8]: 0 (0.0) number (%) of patients; Rigors/Chills [3, 8]: 1 (1.1) number (%) of patients; Skin peeling/Desquamation [3, 8]: 1 (1.1) number (%) of patients; Sticky skin/Skin disorder [3, 8]: 0 (0.0) number (%) of patients; Xerophthalmia/Eye disorder [3, 8]: 1 (1.1) number (%) of patients; Alopecia [3, 9]: 1 (0.3) number (%) of patients; Arthralgia [3, 9]: 60 (17.2) number (%) of patients; Atrophy of skin [3, 9]: 0 (0.0) number (%) of patients; Back pain [3, 9]: 16 (4.6) number (%) of patients; Cheilitis [3, 9]: 228 (65.5) number (%) of patients; Dry Skin [3, 9]: 82 (23.6) number (%) of patients; Dry mouth/Oral dryness [3, 9]: 11 (3.2) number (%) of patients; Epistaxis [3, 9]: 2 (0.6) number (%) of patients; Erythematous rash/Erythema [3, 9]: 2 (0.6) number (%) of patients; Hyperesthesia [3, 9]: 0 (0.0) number (%) of patients; Nail Disorder [3, 9]: 2 (0.6) number (%) of patients; Paresthesia [3, 9]: 7 (2.0) number (%) of patients; Paronychia/Nail disorder [3, 9]: 2 (0.6) number (%) of patients; Pruritus [3, 9]: 21 (6.0) number (%) of patients; Rhinitis [3, 9]: 8 (2.3) number (%) of patients; Rigors/Chills [3, 9]: 9 (2.6) number (%) of patients; Skin peeling/Desquamation [3, 9]: 3 (0.9) number (%) of patients; Sticky skin/Skin disorder [3, 9]: 1 (0.3) number (%) of patients; Xerophthalmia/Eye disorder [3, 9]: 8 (2.3) number (%) of patients; changes in urinalysis, chemistry, or hematology measures (liver function tests, triglycerides, total and HDL cholesterol) ([4]; 0.4 mg to 6 mg daily): no consistent dose-related clinically significant changes; ligament calcification, osteophyte formation, serum bone alkaline phosphatase, amino terminal telopeptides, bone density ([4]; 0.4 mg to 6 mg daily): not associated with any clinically significant; incidence of arthralgia ([4]; 2.8 mg, n=11, treatment period): 9%; incidence of asthenia ([4]; 2.8 mg, n=11, treatment period): 0%; incidence of cheilitis ([4]; 2.8 mg, n=11, treatment period): 64%; incidence of dry skin ([4]; 2.8 mg, n=11, treatment period): 18%; incidence of headache ([4]; 2.8 mg, n=11, treatment period): 9%; incidence of joint disorder ([4]; 2.8 mg, n=11, treatment period): 27%; incidence of myalgia ([4]; 2.8 mg, n=11, treatment period): 0%; severe dry skin ([4]; 3 mg and 6 mg groups): No patient has severe dry skin; Emotional lability, patients ([4]; 3 mg group): 3%; mild cheilitis ([4]; 3 mg group): 25 patients; mild dry skin ([4]; 3 mg group): 11 patients; moderate cheilitis ([4]; 3 mg group): 3 patients; moderate dry skin ([4]; 3 mg group): 2 patient; severe cheilitis ([4]; 3 mg group): 1 patient; Depression, patients ([4]; 3 mg group (2 mild, 1 severe)): 8%; incidence of arthralgia ([4]; 3 mg, n=37, treatment period): 8%; incidence of asthenia ([4]; 3 mg, n=37, treatment period): 19%; incidence of cheilitis ([4]; 3 mg, n=37, treatment period): 78%; incidence of dry skin ([4]; 3 mg, n=37, treatment period): 35%; incidence of headache ([4]; 3 mg, n=37, treatment period): 19%; incidence of joint disorder ([4]; 3 mg, n=37, treatment period): 14%; incidence of myalgia ([4]; 3 mg, n=37, treatment period): 16%; Depression, patients ([4]; 6 mg group): none; Emotional lability, patients ([4]; 6 mg group): 14%; mild cheilitis ([4]; 6 mg group): 27 patients; mild dry skin ([4]; 6 mg group): 17 patients; moderate cheilitis ([4]; 6 mg group): 6 patients; moderate dry skin ([4]; 6 mg group): 1 patient; severe cheilitis ([4]; 6 mg group): 1 patient; incidence of arthralgia ([4]; 6 mg, n=36, treatment period): 28%; incidence of asthenia ([4]; 6 mg, n=36, treatment period): 19%; incidence of cheilitis ([4]; 6 mg, n=36, treatment period): 94%; incidence of dry skin ([4]; 6 mg, n=36, treatment period): 50%; incidence of headache ([4]; 6 mg, n=36, treatment period): 36%; incidence of joint disorder ([4]; 6 mg, n=36, treatment period): 19%; incidence of myalgia ([4]; 6 mg, n=36, treatment period): 25%; patients withdrawing from either study due to adverse events ([4]; both studies, 7/277 patients including placebo): 2.5%; changes in liver function test values or cholesterol levels [5, 10]: no clinically significant changes; serious adverse events related to study treatment [5, 10]: no serious adverse events considered related to the study treatment; incidence of arthralgia [5, 11]: 20%; incidence of asthenia [5, 11]: 6%; incidence of back pain [5, 11]: 11%; incidence of cheilitis [5, 11]: 70%; incidence of dry skin [5, 11]: 25%; incidence of headache [5, 11]: 11%; incidence of hypertriglyceridemia [5, 11]: 6%; incidence of infection [5, 11]: 10%; incidence of myalgia [5, 11]: 15%; Clinical success (a 2-grade reduction in OLA), patients ([5]; end of the 12-week post-treatment period): 16%
